Numbers after ± are expanded uncertainties.
Conditions: Liquid, Closed cell (Static) method

CCO [ethanol]
Conditions	vapor or sublimation pressure [kPa]
317 K	21.9 ± 0.4
325.12 K	32.5 ± 0.4
330.28 K	41.3 ± 0.4
335.45 K	52 ± 0.4
339.58 K	62.3 ± 0.4
342.32 K	70 ± 0.5
345.79 K	80.9 ± 0.5
348.45 K	90.2 ± 0.5
351.31 K	101.4 ± 0.5

CCCO [propan-1-ol]
Conditions	vapor or sublimation pressure [kPa]
334.53 K	21.9 ± 0.4
342.07 K	31.2 ± 0.4
349.12 K	42.9 ± 0.4
353.96 K	52.7 ± 0.4
357.95 K	62.4 ± 0.4
361.25 K	71.4 ± 0.5
364.3 K	80.7 ± 0.5
367.51 K	91.6 ± 0.5
370.44 K	102.7 ± 0.5

CCCOC(C)=O [propyl ethanoate]
Conditions	vapor or sublimation pressure [kPa]
331.7 K	22.2 ± 0.4
340.16 K	31.1 ± 0.4
348.06 K	41.8 ± 0.4
353.27 K	50.4 ± 0.4
359.55 K	62.7 ± 0.4
363.29 K	71 ± 0.4
367.42 K	81.4 ± 0.5
371.07 K	91.5 ± 0.5
374.29 K	101.4 ± 0.5

Source: the NIST ThermoML archive (doi:10.1016/j.fluid.2010.11.026)
